Measurements reported in patent publication USRE50050E1, “Pyrimidinedione compounds” (MyoKardia, Inc., priority 2013, dated 2024).
pIC50: −log10 of the molar value.

target: T1, bovine cardiac myosin (Bos taurus, UniProt Q9BE39); assay: Myosin inhibition assay (PK/LDH-coupled ATPase, bovine cardiac myofibrils); assay type: biochemical; conditions: not given
T1 construct: The source of cardiac myosin was from bovine heart in the form of skinned myofibrils; from tissue; host or cells: bovine heart, skinned myofibrils
T1 sequence (Q9BE39 whole entry): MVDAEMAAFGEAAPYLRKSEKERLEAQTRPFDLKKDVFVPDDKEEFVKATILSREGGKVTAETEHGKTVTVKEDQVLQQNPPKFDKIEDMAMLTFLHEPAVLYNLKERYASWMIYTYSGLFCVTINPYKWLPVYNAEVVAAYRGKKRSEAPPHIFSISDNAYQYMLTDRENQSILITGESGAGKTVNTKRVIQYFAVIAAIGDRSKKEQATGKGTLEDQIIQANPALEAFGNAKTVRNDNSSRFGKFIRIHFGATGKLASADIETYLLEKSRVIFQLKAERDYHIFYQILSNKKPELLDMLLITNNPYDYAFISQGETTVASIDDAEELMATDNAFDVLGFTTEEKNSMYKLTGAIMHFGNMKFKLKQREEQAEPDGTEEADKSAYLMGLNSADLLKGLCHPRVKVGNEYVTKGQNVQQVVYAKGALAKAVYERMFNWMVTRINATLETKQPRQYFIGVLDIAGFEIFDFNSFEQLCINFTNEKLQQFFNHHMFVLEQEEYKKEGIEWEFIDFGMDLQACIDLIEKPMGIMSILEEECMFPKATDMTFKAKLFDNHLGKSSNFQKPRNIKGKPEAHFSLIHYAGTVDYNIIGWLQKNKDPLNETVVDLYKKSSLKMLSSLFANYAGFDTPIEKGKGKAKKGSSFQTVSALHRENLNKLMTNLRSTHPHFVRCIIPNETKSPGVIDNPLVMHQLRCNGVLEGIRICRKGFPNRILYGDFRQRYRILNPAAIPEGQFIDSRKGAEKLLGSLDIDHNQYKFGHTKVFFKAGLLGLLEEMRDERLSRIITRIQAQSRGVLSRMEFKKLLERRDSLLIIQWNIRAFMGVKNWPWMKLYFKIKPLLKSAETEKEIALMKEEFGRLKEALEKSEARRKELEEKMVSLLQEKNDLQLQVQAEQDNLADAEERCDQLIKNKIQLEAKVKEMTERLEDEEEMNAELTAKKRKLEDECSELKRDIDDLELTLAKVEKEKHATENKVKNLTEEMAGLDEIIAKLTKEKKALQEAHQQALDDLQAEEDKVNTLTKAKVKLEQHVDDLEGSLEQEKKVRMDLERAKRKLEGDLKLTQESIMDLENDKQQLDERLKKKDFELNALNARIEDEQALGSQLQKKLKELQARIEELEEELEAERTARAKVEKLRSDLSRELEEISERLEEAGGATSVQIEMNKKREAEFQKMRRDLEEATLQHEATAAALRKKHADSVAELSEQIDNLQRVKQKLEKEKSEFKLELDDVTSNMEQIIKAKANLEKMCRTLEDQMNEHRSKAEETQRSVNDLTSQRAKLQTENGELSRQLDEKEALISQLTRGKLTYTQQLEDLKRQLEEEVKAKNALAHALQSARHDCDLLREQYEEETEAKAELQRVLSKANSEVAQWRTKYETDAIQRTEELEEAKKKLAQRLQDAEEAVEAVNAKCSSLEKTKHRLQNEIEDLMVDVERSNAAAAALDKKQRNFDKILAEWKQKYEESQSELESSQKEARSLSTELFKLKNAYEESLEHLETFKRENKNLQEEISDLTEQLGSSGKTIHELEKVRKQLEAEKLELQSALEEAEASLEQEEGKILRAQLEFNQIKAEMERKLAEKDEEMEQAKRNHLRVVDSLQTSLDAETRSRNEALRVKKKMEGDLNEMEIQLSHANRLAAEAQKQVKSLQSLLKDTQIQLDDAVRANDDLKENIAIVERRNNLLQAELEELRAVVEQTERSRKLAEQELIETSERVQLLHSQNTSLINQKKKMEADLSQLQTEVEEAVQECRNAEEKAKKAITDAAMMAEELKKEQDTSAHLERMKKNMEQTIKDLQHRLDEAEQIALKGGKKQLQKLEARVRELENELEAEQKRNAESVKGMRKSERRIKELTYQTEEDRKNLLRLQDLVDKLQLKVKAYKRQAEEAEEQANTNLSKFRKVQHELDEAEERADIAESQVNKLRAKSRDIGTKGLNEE
T1 sequence (P85100 whole entry partner): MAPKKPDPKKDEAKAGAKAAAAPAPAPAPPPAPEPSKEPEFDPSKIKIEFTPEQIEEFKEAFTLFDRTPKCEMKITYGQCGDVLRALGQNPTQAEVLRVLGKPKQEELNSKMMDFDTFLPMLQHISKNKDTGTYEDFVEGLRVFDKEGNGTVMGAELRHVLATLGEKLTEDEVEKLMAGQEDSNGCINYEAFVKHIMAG
T1 sequence (Q3SZE5 whole entry partner): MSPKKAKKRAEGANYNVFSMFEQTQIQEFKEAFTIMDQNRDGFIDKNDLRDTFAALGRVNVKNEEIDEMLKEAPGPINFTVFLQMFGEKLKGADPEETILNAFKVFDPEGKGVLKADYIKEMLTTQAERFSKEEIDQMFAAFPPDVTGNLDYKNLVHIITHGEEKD

`CC(C)n1c(=O)cc(N[C@@H](C)Cc2ccc(F)cc2)[nH]c1=O` [Compound 51, (S)-6-((1-(4-fluorophenyl)propan-2-yl)amino)-3-isopropylpyrimidine-2,4(1H,3H)-dione] showed a pIC50 of 4.82 to 6.00.

same assay, conditions: bovine cardiac myofibrils, calcium giving 50% activation (pCa50); read-out: Biochemical Activity (pCa50)

`CC(C)n1c(=O)cc(N[C@@H](C)c2cccc(Br)c2)[nH]c1=O` [Compound 35] and `C[C@H](Nc1cc(=O)n(-c2ccccn2)c(=O)[nH]1)c1ccccc1` [Compound 38] cannot be ordered by pIC50: over 6.00 for the first, over 6.00 for the second.

With `CC[C@H](Nc1cc(=O)n(CC)c(=O)[nH]1)c1ccccc1` [Compound 36] the pIC50 was 4.82 to 6.00.

same assay, conditions: bovine cardiac myofibrils, calcium giving 75% activation (pCa75); read-out: Biochemical Activity (pCa75)

Going from `CC(C)n1c(=O)[nH]c(N[C@@H](C)c2ccccc2)c(Br)c1=O` [Compound 3, (S)-5-Bromo-3-isopropyl-6-((1-phenylethyl)amino)pyrimidine-2,4(1H,3H)-dione] to `Cc1c(N[C@@H](C)c2ccccc2)[nH]c(=O)n(C(C)C)c1=O` [Compound 25], the pIC50 falls from over 6.00 to under 4.82.

`CC(C)n1c(=O)[nH]c(N[C@@H](C)c2cccc(Cl)c2)c(F)c1=O` [Compound 4, (S)-6-((1-(3-Chlorophenyl)ethyl)amino)-5-fluoro-3-isopropylpyrimidine-2,4(1H,3H)-dione] and `CC(C)n1c(=O)[nH]c(N[C@@H](C)c2cccc(F)c2)c(F)c1=O` [Compound 32] cannot be ordered by pIC50: over 6.00 for the first, over 6.00 for the second.

`CC(C)n1c(=O)cc(N[C@@H](C)c2cc(F)cc(F)c2)[nH]c1=O` [Compound 5, (S)-6-((1-(3,5-Difluorophenyl)ethyl)amino)-3-isopropylpyrimidine-2,4(1H,3H)-dione] and `CC(C)n1c(=O)cc(N[C@@H](C)c2cc(F)ccc2F)[nH]c1=O` [Compound 34] cannot be ordered by pIC50: over 6.00 for the first, over 6.00 for the second.

`CC(C)n1c(=O)cc(N[C@H](c2ccccc2)C2CC2)[nH]c1=O` [Compound 6, (S)-6-((Cyclopropyl(phenyl)methyl)amino)-3-isopropylpyrimidine-2,4(1H,3H)-dione] and `CC(C)n1c(=O)cc(N[C@H](c2ccccc2)C2CCC2)[nH]c1=O` [Compound 8, (S)-6-((Cyclobutyl(phenyl)methyl)amino)-3-isopropylpyrimidine-2,4(1H,3H)-dione] cannot be ordered by pIC50: over 6.00 for the first, over 6.00 for the second.

`COc1cccc([C@@H](Nc2cc(=O)n(C(C)C)c(=O)[nH]2)C2CC2)c1` [Compound 7, (S)-6-((cyclopropyl(3-methoxyphenyl)methyl)amino)-3-isopropylpyrimidine-2,4(1H,3H)-dione] and `COc1cccc([C@H](C)Nc2cc(=O)n(C(C)C)c(=O)[nH]2)c1` [Compound 21] cannot be ordered by pIC50: over 6.00 for the first, over 6.00 for the second.

Compared with `C[C@H](Nc1cc(=O)n(C2CCOCC2)c(=O)[nH]1)c1ccccc1` [Compound 9, (S)-6-((1-phenylethyl)amino)-3-(tetrahydro-2H-pyran-4-yl)pyrimidine-2,4(1H,3H)-dione], `C[C@H](Nc1cc(=O)n(C2CCOC2)c(=O)[nH]1)c1ccccc1` (stereo partly drawn) [Compound 11, 6-(((S)-1-phenylethyl)amino)-3-(tetrahydrofuran-3-yl)pyrimidine-2,4(1H,3H)-dione] is lower in pIC50: over 6.00 for the first, 4.82 to 6.00 for the second.

Compared with `COc1cccc([C@H](C)Nc2cc(=O)n(C3CCOCC3)c(=O)[nH]2)c1` [Compound 10, (S)-6-((1-(3-methoxyphenyl)ethyl)amino)-3-(tetrahydro-2H-pyran-4-yl)pyrimidine-2,4(1H,3H)-dione], `C[C@H](Nc1cc(=O)n(C2CC2)c(=O)[nH]1)c1ccccc1` [Compound 37] is lower in pIC50: over 6.00 for the first, 4.82 to 6.00 for the second.

`COC(=O)N1CCC(n2c(=O)cc(N[C@@H](C)c3ccccc3)[nH]c2=O)CC1` [Compound 13, (S)-methyl 4-(2,6-dioxo-4-(1-phenylethylamino)-2,3-dihydropyrimidin-1(6H)-yl)piperidine-1-carboxylate] and `C[C@H](Nc1cc(=O)n(C2CCCCC2)c(=O)[nH]1)c1ccccc1` [Compound 44] cannot be ordered by pIC50: over 6.00 for the first, over 6.00 for the second.

`CC[C@@H](C)n1c(=O)cc(N[C@@H](C)c2cccc(OC)c2)[nH]c1=O` [Compound 14, 3-(R)-sec-butyl-6-((S)-1-(3-methoxyphenyl)ethylamino)pyrimidine-2,4(1H,3H)-dione] and `Cc1cccc([C@H](C)Nc2cc(=O)n(C(C)C)c(=O)[nH]2)c1` [Compound 50, (S)-3-isopropyl-6-((1-(m-tolyl)ethyl)amino)pyrimidine-2,4(1H,3H)-dione] cannot be ordered by pIC50: over 6.00 for the first, over 6.00 for the second.

`C[C@H](Nc1cc(=O)n(-c2cccnc2)c(=O)[nH]1)c1ccccc1` [Compound 15, (S)-6-(1-phenylethylamino)-3-(pyridin-3-yl)pyrimidine-2,4(1H,3H)-dione] and `C[C@H](Nc1cc(=O)n(-c2ccccn2)c(=O)[nH]1)c1ccccc1` [Compound 38] cannot be ordered by pIC50: over 6.00 for the first, over 6.00 for the second.

First: C[C@H](Nc1cc(=O)n(-c2ccon2)c(=O)[nH]1)c1ccccc1 [Compound 16, (S)-3-(Isoxazol-3-yl)-6-(1-phenylethylamino)pyrimidine-2,4(1H,3H)-dione]
Second: C[C@H](Nc1cc(=O)n(-c2ccn(C)n2)c(=O)[nH]1)c1ccccc1 [Compound 39]
The pIC50 of the first is lower: 4.82 to 6.00 for the first, over 6.00 for the second.

`CC(C)n1c(=O)cc(N[C@@H](C)c2cccc(-n3cccn3)c2)[nH]c1=O` [Compound 17, (S)-6-((1-(3-(1H-pyrazol-1-yl)phenyl)ethyl)amino)-3-isopropylpyrimidine-2,4(1H,3H)-dione] and `CC(C)n1c(=O)cc(N[C@@H](C)c2cccc(-n3cncn3)c2)[nH]c1=O` [Compound 41] cannot be ordered by pIC50: over 6.00 for the first, over 6.00 for the second.

First: COc1ccccc1[C@H](C)Nc1cc(=O)n(C(C)C)c(=O)[nH]1 [Compound 22]
Second: CC(C)n1c(=O)cc(N[C@@H](C)c2ccccc2F)[nH]c1=O [Compound 26]
The pIC50 of the first is lower: 4.82 to 6.00 for the first, over 6.00 for the second. The second is the more potent here.

`CC[C@H](Nc1cc(=O)n(C(C)C)c(=O)[nH]1)c1ccccc1` [Compound 24] and `COC[C@H](Nc1cc(=O)n(C(C)C)c(=O)[nH]1)c1ccccc1` [Compound 29] cannot be ordered by pIC50: over 6.00 for the first, over 6.00 for the second.

`CC(C)n1c(=O)cc(N[C@@H](C)c2cccc(Cl)c2)[nH]c1=O` [Compound 28] and `CC(C)n1c(=O)cc(N[C@@H](C)c2cccc(Br)c2)[nH]c1=O` [Compound 35] cannot be ordered by pIC50: over 6.00 for the first, over 6.00 for the second.

`CC(C)n1c(=O)cc(N[C@@H](C)c2ccc(F)cc2)[nH]c1=O` [Compound 30] and `Cc1nccn1-c1cccc([C@H](C)Nc2cc(=O)n(C(C)C)c(=O)[nH]2)c1` [Compound 42] cannot be ordered by pIC50: over 6.00 for the first, over 6.00 for the second.

`CC[C@H](Nc1[nH]c(=O)n(C(C)C)c(=O)c1F)c1ccccc1` [Compound 31] and `COc1cccc([C@H](C)Nc2[nH]c(=O)n(C(C)C)c(=O)c2F)c1` [Compound 33] cannot be ordered by pIC50: over 6.00 for the first, over 6.00 for the second.

First: C[C@H](Nc1cc(=O)n(-c2ccno2)c(=O)[nH]1)c1ccccc1 [Compound 40]
Second: C[C@H](Nc1cc(=O)n(C)c(=O)[nH]1)c1ccccc1 [Compound 47]
The pIC50 of the first is higher: over 6.00 for the first, 4.82 to 6.00 for the second. The first is the more potent here.

`CC(C)n1c(=O)cc(N[C@@H](C)c2cccc(N3CCOC3=O)c2)[nH]c1=O` [Compound 43] and `CC(C)n1c(=O)cc(N[C@H](c2ccccc2)C(F)(F)F)[nH]c1=O` [Compound 52, (R)-3-isopropyl-6-((2,2,2-trifluoro-1-phenylethyl)amino)pyrimidine-2,4(1H,3H)-dione] cannot be ordered by pIC50: over 6.00 for the first, over 6.00 for the second.

`CCn1c(=O)cc(N[C@@H](C)c2ccccc2)[nH]c1=O` [Compound 46] and `C[C@H](Nc1cc(=O)n([C@H](C)COCc2ccccc2)c(=O)[nH]1)c1ccccc1` [Compound 53, 3-((R)-1-(benzyloxy)propan-2-yl)-6-(((S)-1-phenylethyl)amino)pyrimidine-2,4(1H,3H)-dione] fall in the same range of pIC50: 4.82 to 6.00 for the first, 4.82 to 6.00 for the second.

same assay, conditions: pCa75; assay conducted using 0.5 μM myosin, IC50 values below 1.0 μM are approximate; read-out: IC50 (pCa75)

Point of comparison: `COc1cccc([C@H](C)Nc2cc(=O)n(C(C)C)c(=O)[nH]2)c1` [Compound 21], pIC50 6.41. Against it:
- COc1cccc([C@@H](C)Nc2cc(=O)n(C(C)C)c(=O)[nH]2)c1 [Compound 20R] — 1.70 log units lower, 4.71
